In PubChem BioAssay AID216 (DTP/NCI, 2004):
Several values for one entry are separate records, joined by “and”; a condition that tells them apart may be missing. Equal entries are not always repeated. Toxic doses and inconclusive results are not listed.

Test system: BDF1 mice, P288 leukemia ip, survival T/C
Experiment: NCI In Vivo Anticancer Drug Screen. Data for tumor model P288 Lymphocytic Leukemia (intraperitoneal) in B6D2F1 (BDF1) mice
Settings: endpoint: survival time, mean or median, higher = longer survival
Experimental: The antitumor activity of compounds was measured in mice bearing transplantable tumors. Survival or tumor size were measured and the results are expressed as the measurement made in the treated group (T) divided by the measurement made in the vehicle treated control group (C). The tumor model used in this assay is P288 Lymphocytic Leukemia (intraperitoneal) in B6D2F1 (BDF1) mice

[1] = dose: 18.8 mg/kg/injection, schedule: Q01DX Z (ip), vehicle: carboxymethylcellulose (CMC)
[2] = dose: 25.0 mg/kg/injection, schedule: Q01DX010 (ip), vehicle: saline
[3] = dose: 37.5 mg/kg/injection, schedule: Q01DX Z (ip), vehicle: carboxymethylcellulose (CMC)
[4] = dose: 50.0 mg/kg/injection, schedule: Q01DX010 (ip), vehicle: saline
[5] = dose: 75.0 mg/kg/injection, schedule: Q01DX Z (ip), vehicle: carboxymethylcellulose (CMC)
[6] = dose: 100.0 mg/kg/injection, schedule: Q01DX010 (ip), vehicle: saline
[7] = dose: 200.0 mg/kg/injection, schedule: Q01DX010 (ip), vehicle: saline
[8] = dose: 0.5 mg/kg/injection, schedule: Q01DX010 (ip), vehicle: saline
[9] = dose: 1.0 mg/kg/injection, schedule: Q01DX010 (ip), vehicle: saline
[10] = dose: 2.0 mg/kg/injection, schedule: Q01DX010 (ip), vehicle: saline

O=C1C(NC(=O)C2CCCCC2)=C(N2CC2)C(=O)C(NC(=O)C2CCCCC2)=C1N1CC1
T/C [1]: 93 % of control
T/C [2]: 100 % of control
T/C [3]: 96 % of control
T/C [4]: 94 % of control
T/C [5]: 107 % of control
T/C [6]: 88 % of control
T/C (dose: 150.0 mg/kg/injection, schedule: Q01DX Z (ip), vehicle: carboxymethylcellulose (CMC)): 100 % of control
T/C [7]: 100 % of control
T/C (dose: 300.0 mg/kg/injection, schedule: Q01DX Z (ip), vehicle: carboxymethylcellulose (CMC)): 112 % of control
T/C (dose: 600.0 mg/kg/injection, schedule: Q01DX Z (ip), vehicle: carboxymethylcellulose (CMC)): 105 % of control and 120 % of control
T/C (dose: 1200.0 mg/kg/injection, schedule: Q01DX Z (ip), vehicle: carboxymethylcellulose (CMC)): 86 % of control

C[C@]12CC[C@H](OC3OC(CO)C(O)C(O)C3O)C[C@H]1CC[C@@H]1[C@@H]2CC[C@]2(C)[C@@H](C3=CCOC3=O)CC[C@]12O (some centres undefined)
T/C (dose: 0.12 mg/kg/injection, schedule: Q01DX Z (ip), vehicle: saline): 97 % of control
T/C (dose: 0.25 mg/kg/injection, schedule: Q01DX Z (ip), vehicle: saline): 97 % of control
T/C (dose: 0.5 mg/kg/injection, schedule: Q01DX Z (ip), vehicle: saline): 101 % of control and 98 % of control
T/C (dose: 1.0 mg/kg/injection, schedule: Q01DX Z (ip), vehicle: saline): 104 % of control and 110 % of control
T/C (dose: 2.0 mg/kg/injection, schedule: Q01DX Z (ip), vehicle: saline): 105 % of control and 107 % of control
T/C (dose: 4.0 mg/kg/injection, schedule: Q01DX Z (ip), vehicle: saline): 121 % of control and 94 % of control

OC(CBr)C(O)C(O)C(O)CBr (centres undefined)
T/C [4]: 114 % of control and 94 % of control
T/C [6]: 114 % of control and 94 % of control
T/C [7]: 114 % of control and 94 % of control
T/C (dose: 400.0 mg/kg/injection, schedule: Q01DX010 (ip), vehicle: saline): 105 % of control and 114 % of control

S=c1nc[nH]c2nc[nH]c12
T/C (dose: 5.0 mg/kg/injection, schedule: Q01DX010 (ip), vehicle: alkali diluted with saline): 92 % of control
T/C (dose: 10.0 mg/kg/injection, schedule: Q01DX010 (ip), vehicle: alkali diluted with saline): 94 % of control
T/C (dose: 12.5 mg/kg/injection, schedule: Q01DX Z (ip), vehicle: other): 97 % of control
T/C (dose: 20.0 mg/kg/injection, schedule: Q01DX010 (ip), vehicle: alkali diluted with saline): 86 % of control and 100 % of control
T/C (dose: 25.0 mg/kg/injection, schedule: Q01DX Z (ip), vehicle: other): 93 % of control and 100 % of control
T/C (dose: 40.0 mg/kg/injection, schedule: Q01DX010 (ip), vehicle: alkali diluted with saline): 110 % of control and 86 % of control
T/C (dose: 50.0 mg/kg/injection, schedule: Q01DX Z (ip), vehicle: other): 102 % of control and 94 % of control
T/C (dose: 80.0 mg/kg/injection, schedule: Q01DX010 (ip), vehicle: alkali diluted with saline): 117 % of control and 86 % of control
T/C (dose: 100.0 mg/kg/injection, schedule: Q01DX Z (ip), vehicle: other): 105 % of control and 118 % of control
T/C (dose: 200.0 mg/kg/injection, schedule: Q01DX Z (ip), vehicle: other): 106 % of control and 100 % of control
T/C (dose: 400.0 mg/kg/injection, schedule: Q01DX Z (ip), vehicle: other): 89 % of control

CC(=O)NC1=C(N2CC2)C(=O)C(NC(C)=O)=C(N2CC2)C1=O
T/C (dose: 0.25 mg/kg/injection, schedule: Q01DX010 (ip), vehicle: saline): 105 % of control
T/C [8]: 166 % of control
T/C [9]: 222 % of control
T/C [10]: 111 % of control
T/C (dose: 125.0 micrograms/kg/injection, schedule: Q01DX010 (ip), vehicle: saline): 105 % of control
T/C (dose: 250.0 micrograms/kg/injection, schedule: Q01DX010 (ip), vehicle: saline): 100 % of control
T/C (dose: 500.0 micrograms/kg/injection, schedule: Q01DX010 (ip), vehicle: saline): 100 % of control
T/C (dose: 1000.0 micrograms/kg/injection, schedule: Q01DX010 (ip), vehicle: saline): 122 % of control

CS(=O)(=O)OCCCCOS(C)(=O)=O
T/C (dose: 6.25 mg/kg/injection, schedule: Q01DX010 (ip), vehicle: saline): 110 % of control
T/C (dose: 12.5 mg/kg/injection, schedule: Q01DX010 (ip), vehicle: saline): 105 % of control and 115 % of control
T/C [2]: 105 % of control and 110 % of control
T/C [4]: 121 % of control and 100 % of control

CCOC(=O)c1[nH]c2ccccc2c1CN(CCCl)CCCl
T/C (dose: 20.0 mg/kg/injection, schedule: Q01DX010 (ip), vehicle: saline): 95 % of control
T/C (dose: 40.0 mg/kg/injection, schedule: Q01DX010 (ip), vehicle: saline): 100 % of control

C[C@H](N)C(=O)N[C@@H]1[C@H]2C(=C(O)C[C@@H](O)[C@@H]2O)C(=O)O[C@@H]1C
T/C (dose: 150.0 mg/kg/injection, schedule: Q01DX010 (ip), vehicle: saline): 112 % of control
T/C (dose: 300.0 mg/kg/injection, schedule: Q01DX010 (ip), vehicle: saline): 156 % of control
T/C (dose: 600.0 mg/kg/injection, schedule: Q01DX010 (ip), vehicle: saline): 212 % of control

O=[n+]1c2c(n([O-])c3ccccc31)-c1cccc3cccc-2c13
T/C [2]: 88 % of control
T/C [4]: 94 % of control and 100 % of control
T/C [6]: 100 % of control
T/C [7]: 88 % of control and 100 % of control

C[C@]12CCC(=O)C=C1CC[C@@H]1[C@@H]2CC[C@@]2(C)[C@H]1CC[C@]2(C)O
T/C (dose: 16.0 mg/kg/injection, schedule: Q01DX Z (sc), vehicle: steriod suspending solution): 104 % of control
T/C (dose: 31.0 mg/kg/injection, schedule: Q01DX Z (sc), vehicle: steriod suspending solution): 108 % of control
T/C (dose: 62.5 mg/kg/injection, schedule: Q01DX Z (sc), vehicle: steriod suspending solution): 110 % of control and 116 % of control
T/C (dose: 125.0 mg/kg/injection, schedule: Q01DX Z (sc), vehicle: steriod suspending solution): 100 % of control
T/C (dose: 250.0 mg/kg/injection, schedule: Q01DX Z (sc), vehicle: steriod suspending solution): 100 % of control
T/C (dose: 500.0 mg/kg/injection, schedule: Q01DX Z (sc), vehicle: steriod suspending solution): 101 % of control

CS(=O)(=O)OCC(O)C(O)COS(C)(=O)=O (centres undefined)
T/C (dose: 94.0 mg/kg/injection, schedule: Q01DX Z (ip), vehicle: saline): 111 % of control
T/C [6]: 105 % of control
T/C (dose: 187.5 mg/kg/injection, schedule: Q01DX Z (ip), vehicle: saline): 105 % of control
T/C [7]: 94 % of control
T/C (dose: 375.0 mg/kg/injection, schedule: Q01DX Z (ip), vehicle: saline): 117 % of control
T/C (dose: 750.0 mg/kg/injection, schedule: Q01DX Z (ip), vehicle: saline): 111 % of control
T/C (dose: 800.0 mg/kg/injection, schedule: Q01DX010 (ip), vehicle: saline): 105 % of control

Nc1ncnc2c1ccn2C1OC(CO)C(O)C1O (centres undefined)
T/C (dose: 0.31 mg/kg/injection, schedule: Q01DX Z (ip), vehicle: carboxymethylcellulose (CMC)): 108 % of control and 92 % of control
T/C (dose: 0.63 mg/kg/injection, schedule: Q01DX Z (ip), vehicle: carboxymethylcellulose (CMC)): 112 % of control and 93 % of control
T/C (dose: 1.25 mg/kg/injection, schedule: Q01DX Z (ip), vehicle: carboxymethylcellulose (CMC)): 90 % of control
T/C (dose: 2.5 mg/kg/injection, schedule: Q01DX Z (ip), vehicle: carboxymethylcellulose (CMC)): 106 % of control

COc1cc2c(c(OC)c1OC)-c1ccc(N)c(=O)cc1[C@@H](NC(C)=O)CC2
T/C [8]: 157 % of control
T/C [9]: 164 % of control and 214 % of control
T/C [10]: 176 % of control and 242 % of control
T/C (dose: 4.0 mg/kg/injection, schedule: Q01DX010 (ip), vehicle: saline): 100 % of control

O=C(Nc1ccc(C2=NCCN2)cc1)c1cccc(C(=O)Nc2ccc(C3=NCCN3)cc2)c1
T/C (dose: 2.4 mg/kg/injection, schedule: Q01DX Z (ip), vehicle: carboxymethylcellulose (CMC)): 101 % of control
T/C (dose: 4.7 mg/kg/injection, schedule: Q01DX Z (ip), vehicle: carboxymethylcellulose (CMC)): 92 % of control
T/C (dose: 9.4 mg/kg/injection, schedule: Q01DX Z (ip), vehicle: carboxymethylcellulose (CMC)): 105 % of control
T/C (dose: 16.0 mg/kg/injection, schedule: Q01DX010 (ip), vehicle: saline): 211 % of control and 262 % of control
T/C [1]: 161 % of control
T/C (dose: 32.0 mg/kg/injection, schedule: Q01DX010 (ip), vehicle: saline): 255 % of control and 375 % of control
T/C [3]: 230 % of control
T/C (dose: 64.0 mg/kg/injection, schedule: Q01DX010 (ip), vehicle: saline): 333 % of control and 375 % of control
T/C [5]: 112 % of control
T/C (dose: 128.0 mg/kg/injection, schedule: Q01DX010 (ip), vehicle: saline): 268 % of control and 333 % of control
